Measurements as given in paper PMC5762315, “Inhibition of polo-like kinase 4 (PLK4): a new therapeutic option for rhabdoid tumors and pediatric medulloblastoma” (Oncotarget, 2017).
“And” between values parts separate entries of the source, which are not always exact repeats. Equal values may be shown once.

Key:
AURKC = AURKC (Homo sapiens, UniProt Q9UQB9); experiment: Kinase activity screening (SelectScreen), AURKC; assay type: biochemical; conditions: read-out: kinase activity inhibited
MUSK = MUSK (Homo sapiens, UniProt O15146); experiment: Kinase activity screening (SelectScreen), MUSK; assay type: biochemical; conditions: 10-point titration
ROS1 = ROS1 (Homo sapiens, UniProt P08922); experiment: Kinase activity screening (SelectScreen), ROS1; assay type: biochemical; conditions: ZLYTE
various kinases [1] = target: various kinases (Homo sapiens, UniProt O75914); experiment: biochemical; assay type: biochemical; conditions: PAK3
Chain of various kinases (Homo sapiens, UniProt O75914) (O75914 whole entry): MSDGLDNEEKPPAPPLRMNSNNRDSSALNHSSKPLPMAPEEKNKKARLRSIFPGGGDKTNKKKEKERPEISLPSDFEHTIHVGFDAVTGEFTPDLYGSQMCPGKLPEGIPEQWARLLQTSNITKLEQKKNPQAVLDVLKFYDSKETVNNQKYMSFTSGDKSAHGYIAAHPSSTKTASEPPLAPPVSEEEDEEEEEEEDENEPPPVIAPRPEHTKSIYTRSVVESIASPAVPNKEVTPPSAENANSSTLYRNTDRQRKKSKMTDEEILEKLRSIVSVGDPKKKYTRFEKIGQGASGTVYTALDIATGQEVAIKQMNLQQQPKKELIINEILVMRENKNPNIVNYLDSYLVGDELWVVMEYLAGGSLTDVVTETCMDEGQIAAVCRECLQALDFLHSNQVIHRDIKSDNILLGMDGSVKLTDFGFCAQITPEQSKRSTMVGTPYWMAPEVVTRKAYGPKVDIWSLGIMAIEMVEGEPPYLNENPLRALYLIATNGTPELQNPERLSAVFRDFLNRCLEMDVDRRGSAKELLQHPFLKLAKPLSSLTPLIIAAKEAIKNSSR

various kinases [2] = target: various kinases (Homo sapiens, UniProt P06493); experiment: biochemical; assay type: biochemical; conditions: CDK1/cyclin B
Chain of various kinases (Homo sapiens, UniProt P06493) (P06493 whole entry): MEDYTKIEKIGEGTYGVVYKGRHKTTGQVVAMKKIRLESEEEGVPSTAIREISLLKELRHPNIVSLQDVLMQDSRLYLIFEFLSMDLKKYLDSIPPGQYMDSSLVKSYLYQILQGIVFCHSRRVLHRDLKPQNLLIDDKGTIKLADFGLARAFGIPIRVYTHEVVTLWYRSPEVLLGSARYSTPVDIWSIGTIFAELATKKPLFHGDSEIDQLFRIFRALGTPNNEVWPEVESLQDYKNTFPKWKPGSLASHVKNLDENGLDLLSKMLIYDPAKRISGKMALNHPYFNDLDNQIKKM

various kinases [3] = target: various kinases (Homo sapiens, UniProt P07949, A883F); experiment: biochemical; assay type: biochemical; conditions: kinase RET A883F; ZLYTE
Chain of various kinases (Homo sapiens, UniProt P07949, A883F) (P07949 29-1114 A883F): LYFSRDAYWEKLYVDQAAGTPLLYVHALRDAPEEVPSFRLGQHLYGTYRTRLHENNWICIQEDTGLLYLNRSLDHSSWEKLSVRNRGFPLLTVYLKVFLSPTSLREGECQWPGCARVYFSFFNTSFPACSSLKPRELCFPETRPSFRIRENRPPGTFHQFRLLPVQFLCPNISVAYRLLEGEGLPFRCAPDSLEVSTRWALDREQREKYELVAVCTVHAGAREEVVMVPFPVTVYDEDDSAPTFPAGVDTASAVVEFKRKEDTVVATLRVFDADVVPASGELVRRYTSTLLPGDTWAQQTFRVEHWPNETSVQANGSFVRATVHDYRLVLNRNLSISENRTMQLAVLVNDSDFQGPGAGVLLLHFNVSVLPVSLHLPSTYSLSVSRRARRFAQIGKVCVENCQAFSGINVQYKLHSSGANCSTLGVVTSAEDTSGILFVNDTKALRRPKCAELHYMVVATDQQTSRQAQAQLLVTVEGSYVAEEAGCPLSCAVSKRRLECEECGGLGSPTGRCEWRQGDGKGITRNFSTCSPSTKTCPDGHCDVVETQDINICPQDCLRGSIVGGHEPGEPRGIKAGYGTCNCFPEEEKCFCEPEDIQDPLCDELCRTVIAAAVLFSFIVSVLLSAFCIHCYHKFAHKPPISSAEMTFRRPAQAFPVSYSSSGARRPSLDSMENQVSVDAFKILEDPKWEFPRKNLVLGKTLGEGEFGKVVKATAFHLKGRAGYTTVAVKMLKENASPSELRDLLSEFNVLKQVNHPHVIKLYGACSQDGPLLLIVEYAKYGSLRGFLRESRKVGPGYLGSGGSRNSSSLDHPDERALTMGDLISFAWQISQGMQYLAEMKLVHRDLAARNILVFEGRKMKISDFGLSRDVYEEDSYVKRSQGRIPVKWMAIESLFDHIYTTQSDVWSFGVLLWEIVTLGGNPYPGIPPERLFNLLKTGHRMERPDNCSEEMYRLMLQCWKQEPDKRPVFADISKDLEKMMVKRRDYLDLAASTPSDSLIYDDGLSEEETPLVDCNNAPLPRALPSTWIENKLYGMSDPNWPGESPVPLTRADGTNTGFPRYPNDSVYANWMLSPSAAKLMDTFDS

various kinases [4] = target: various kinases (Homo sapiens, UniProt P07949, Y791F); experiment: biochemical; assay type: biochemical; conditions: kinase RET Y791F; ZLYTE
Chain of various kinases (Homo sapiens, UniProt P07949, Y791F) (P07949 29-1114 Y791F): as the sequence (P07949 29-1114 A883F) above, with Y763F, F855A counted along it

various kinases [5] = target: various kinases (Homo sapiens, UniProt P09619); experiment: biochemical; assay type: biochemical; conditions: PDGFRB (PDGFR beta)
various kinases [6] = target: various kinases (Homo sapiens, UniProt P17612); experiment: biochemical; assay type: biochemical; conditions: kinase PRKACA (PKA); ZLYTE
various kinases [7] = target: various kinases (Homo sapiens, UniProt P22607, K650E); experiment: biochemical; assay type: biochemical; conditions: FGFR3 K650E
various kinases [8] = target: various kinases (Homo sapiens, UniProt P35626); experiment: biochemical; assay type: biochemical; conditions: ADRBK2 (GRK3)
various kinases [9] = target: various kinases (Homo sapiens, UniProt P48729); experiment: biochemical; assay type: biochemical; conditions: CSNK1A1 (CK1 alpha 1)
various kinases [10] = target: various kinases (Homo sapiens, UniProt P49841); experiment: biochemical; assay type: biochemical; conditions: GSK3B (GSK3 beta)
Chain of various kinases (Homo sapiens, UniProt P49841) (P49841 whole entry): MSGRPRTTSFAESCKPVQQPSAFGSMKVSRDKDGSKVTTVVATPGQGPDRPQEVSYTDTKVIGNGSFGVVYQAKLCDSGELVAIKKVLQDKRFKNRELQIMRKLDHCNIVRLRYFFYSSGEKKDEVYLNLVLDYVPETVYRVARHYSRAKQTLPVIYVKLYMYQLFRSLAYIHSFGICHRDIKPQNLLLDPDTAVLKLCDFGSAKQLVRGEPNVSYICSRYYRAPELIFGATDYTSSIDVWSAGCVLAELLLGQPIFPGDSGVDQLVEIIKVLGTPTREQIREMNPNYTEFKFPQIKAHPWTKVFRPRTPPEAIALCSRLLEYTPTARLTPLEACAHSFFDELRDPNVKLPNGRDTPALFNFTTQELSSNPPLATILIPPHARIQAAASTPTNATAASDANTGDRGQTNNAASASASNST

various kinases [11] = target: various kinases (Homo sapiens, UniProt P52333); experiment: biochemical; assay type: biochemical; conditions: JAK3
various kinases [12] = target: various kinases (Homo sapiens, UniProt P53778); experiment: biochemical; assay type: biochemical; conditions: MAPK12 (p38 gamma)
Chain of various kinases (Homo sapiens, UniProt P53778) (P53778 whole entry): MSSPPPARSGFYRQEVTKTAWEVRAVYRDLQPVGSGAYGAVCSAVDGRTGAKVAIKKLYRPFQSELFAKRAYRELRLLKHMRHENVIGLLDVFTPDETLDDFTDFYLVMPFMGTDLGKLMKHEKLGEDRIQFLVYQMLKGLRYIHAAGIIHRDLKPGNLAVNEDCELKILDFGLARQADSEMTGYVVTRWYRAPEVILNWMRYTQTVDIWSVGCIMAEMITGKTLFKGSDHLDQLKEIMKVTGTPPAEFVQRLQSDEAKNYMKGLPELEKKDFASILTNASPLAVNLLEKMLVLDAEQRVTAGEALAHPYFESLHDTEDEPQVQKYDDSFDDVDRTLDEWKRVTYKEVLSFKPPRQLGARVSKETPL

various kinases [13] = target: various kinases (Homo sapiens, UniProt Q05655); experiment: biochemical; assay type: biochemical; conditions: kinase PRKCD (PKC delta); ZLYTE
Chain of various kinases (Homo sapiens, UniProt Q05655) (Q05655 whole entry): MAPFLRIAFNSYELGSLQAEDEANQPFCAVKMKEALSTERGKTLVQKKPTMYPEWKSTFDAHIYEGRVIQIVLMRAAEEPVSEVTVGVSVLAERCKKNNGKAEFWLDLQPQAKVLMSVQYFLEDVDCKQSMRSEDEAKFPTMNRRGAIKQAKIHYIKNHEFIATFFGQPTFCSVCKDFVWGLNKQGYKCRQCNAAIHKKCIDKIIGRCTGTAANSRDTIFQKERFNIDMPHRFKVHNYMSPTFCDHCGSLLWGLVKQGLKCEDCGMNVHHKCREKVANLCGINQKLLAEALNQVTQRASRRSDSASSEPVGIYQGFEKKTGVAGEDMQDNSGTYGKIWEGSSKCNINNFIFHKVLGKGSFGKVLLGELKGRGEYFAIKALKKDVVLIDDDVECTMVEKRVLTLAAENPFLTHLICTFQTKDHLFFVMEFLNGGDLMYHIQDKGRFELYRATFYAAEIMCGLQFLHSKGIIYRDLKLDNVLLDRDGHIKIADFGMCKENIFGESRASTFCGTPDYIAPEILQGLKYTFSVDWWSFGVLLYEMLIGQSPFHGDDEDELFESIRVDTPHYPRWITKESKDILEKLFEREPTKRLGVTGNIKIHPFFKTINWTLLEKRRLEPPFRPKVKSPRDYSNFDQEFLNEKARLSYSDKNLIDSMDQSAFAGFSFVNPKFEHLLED

various kinases [14] = target: various kinases (Homo sapiens, UniProt Q16566); experiment: biochemical; assay type: biochemical; conditions: CAMK4 (CaMKIV)
various kinases [15] = target: various kinases (Homo sapiens, UniProt Q6VAB6); experiment: biochemical; assay type: biochemical; conditions: KSR2
various kinases [16] = target: various kinases (Homo sapiens, UniProt Q7KZI7); experiment: biochemical; assay type: biochemical; conditions: MARK2
Chain of various kinases (Homo sapiens, UniProt Q7KZI7) (Q7KZI7 whole entry): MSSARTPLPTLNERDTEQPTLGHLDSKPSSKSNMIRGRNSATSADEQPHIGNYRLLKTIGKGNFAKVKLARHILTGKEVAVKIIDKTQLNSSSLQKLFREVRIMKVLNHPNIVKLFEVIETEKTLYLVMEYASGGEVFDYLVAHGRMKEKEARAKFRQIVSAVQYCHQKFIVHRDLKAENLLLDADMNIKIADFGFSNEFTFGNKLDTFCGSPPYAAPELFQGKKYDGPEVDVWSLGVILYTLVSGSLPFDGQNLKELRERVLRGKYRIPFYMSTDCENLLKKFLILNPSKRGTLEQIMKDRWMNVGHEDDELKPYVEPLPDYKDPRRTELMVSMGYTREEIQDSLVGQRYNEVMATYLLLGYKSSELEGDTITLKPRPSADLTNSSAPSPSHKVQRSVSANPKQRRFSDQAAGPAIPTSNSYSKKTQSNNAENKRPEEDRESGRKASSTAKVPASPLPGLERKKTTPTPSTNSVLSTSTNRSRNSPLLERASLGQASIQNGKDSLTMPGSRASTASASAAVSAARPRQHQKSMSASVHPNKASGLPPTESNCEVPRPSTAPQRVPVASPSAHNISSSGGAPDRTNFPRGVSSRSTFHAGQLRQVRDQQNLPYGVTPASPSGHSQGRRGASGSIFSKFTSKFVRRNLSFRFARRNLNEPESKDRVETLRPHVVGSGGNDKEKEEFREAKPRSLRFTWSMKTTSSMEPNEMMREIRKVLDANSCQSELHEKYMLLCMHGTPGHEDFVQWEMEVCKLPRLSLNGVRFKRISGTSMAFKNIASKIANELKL

various kinases [17] = target: various kinases (Homo sapiens, UniProt Q86Z02); experiment: biochemical; assay type: biochemical; conditions: HIPK1 (Myak)
various kinases [18] = target: various kinases (Homo sapiens, UniProt Q9UK32); experiment: biochemical; assay type: biochemical; conditions: kinase RPS6KA6 (RSK4); ZLYTE
Chain of various kinases (Homo sapiens, UniProt Q9UK32) (Q9UK32 whole entry): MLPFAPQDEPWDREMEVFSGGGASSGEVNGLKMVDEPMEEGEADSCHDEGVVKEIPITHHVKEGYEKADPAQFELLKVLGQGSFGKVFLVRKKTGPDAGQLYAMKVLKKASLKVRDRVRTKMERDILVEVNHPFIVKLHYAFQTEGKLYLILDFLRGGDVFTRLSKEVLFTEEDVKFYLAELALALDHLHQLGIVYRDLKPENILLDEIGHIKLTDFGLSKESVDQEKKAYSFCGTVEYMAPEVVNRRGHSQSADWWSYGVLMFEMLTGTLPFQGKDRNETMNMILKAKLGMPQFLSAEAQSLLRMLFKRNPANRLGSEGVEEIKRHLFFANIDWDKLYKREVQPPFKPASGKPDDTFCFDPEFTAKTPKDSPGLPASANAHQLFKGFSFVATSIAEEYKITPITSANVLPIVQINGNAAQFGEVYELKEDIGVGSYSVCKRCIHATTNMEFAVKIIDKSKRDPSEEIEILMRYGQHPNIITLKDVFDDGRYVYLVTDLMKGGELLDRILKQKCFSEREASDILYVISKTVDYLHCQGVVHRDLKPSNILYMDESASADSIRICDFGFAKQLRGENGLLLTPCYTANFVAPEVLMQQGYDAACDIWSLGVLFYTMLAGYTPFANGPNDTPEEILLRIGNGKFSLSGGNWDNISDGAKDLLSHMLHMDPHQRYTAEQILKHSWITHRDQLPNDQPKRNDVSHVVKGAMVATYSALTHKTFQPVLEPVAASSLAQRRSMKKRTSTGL

BT-12 cells = experiment: Viability assay (Presto Blue), BT-12; assay type: cell-based; conditions: Homo sapiens, dose-response 1nM to 10μM
Experimental: Except DAOY and D283, all cell lines were plated with 2 x 10^3 cells per well 96-well and the absorbance was measured after 48 and 72 hours at drug concentrations of 5, 10, 50, 100, 200, 500nM, 1μM and 5μM.

DAOY MB cells = experiment: Confluency assay (IncuCyte ZOOM), DAOY; assay type: cell-based, human; conditions: increasing concentrations starting at 31.25nM, 48 hours, p-value=0.029
Experimental: For further evaluation of the effect of the PLK4 inhibitor over tumor cell proliferation, confluency was measured over a 48 hour period. MON, BT-12, G401 and DAOY cells were plated in 96-well plates with a density of 6 x 10^4 per well. […] Confluency was monitored for 48 hours by taking phase contrast images every 2 hours and measured using an IncuCyte ZOOM system (Essen BioScience, USA). Experiments were performed in triplicates.

RT and MB cell lines = experiment: Clonogenic recovery assay; assay type: cell-based, human; conditions: 6 days 100nM, then 12 days 0.1% DMSO
Experimental: For each cell line, 200 cells were seeded into 6-well tissue culture plates. […] On the 7th day, cell were washed with 1X PBS twice and then incubated with 0.1% DMSO for an additional 12 days. […] The number of colonies was counted. All experiments were performed in triplicates.

[19] = test system: non-neoplastic human fibroblast cell line HFF-SCC058; experiment: Flow cytometry cell cycle analysis (polyploidy), fibroblasts; assay type: cell-based; conditions: 100nM
Experimental: Cell cycle evaluation was performed by staining the cells with PI (Thermo Fisher Scientific, USA) according to manufacturer’s instructions. […] Data was analyzed using Modfit LT from Verity Software House. Experiments were performed in triplicates.

[20] = test system: BT-12 AT/RT orthotopic xenografts; experiment: Intracranial AT/RT xenograft tumors; assay type: in vivo, athymic mice
Text: Six-week-old female athymic mice (rnu/rnu genotype, BALB/c background) were purchased from Envigo (Harlan) and housed under aseptic conditions, which included filtered air and sterilized food, water, bedding, and cages. The Northwestern University Institutional Animal Care and Use Committee approved all animal protocols. The BT-12 AT/RT cell line, which has high expression of PLK4 was modified to express luciferase and injected intracranially in nude mice as previously described. Each mouse was injected with a cell suspension (10,000 cells/3μL) into the right caudate putamen of the brain. […] Bioluminescence monitoring was performed twice a week throughout the course of the experiment for quantitative measurement of tumor growth and response to therapy. Kaplan-Meier survival analysis was performed to assess survival benefit within the treatment group as compared to controls. Differences between survival curves were calculated using a log-rank test. Brains were resected at 6 hours following completion of the treatment and placed in 4% paraformaldehyde for subsequent histological examination.

[21] = H&E of xenografts, treated vs control, p-value<0.0001

COc1ccc2c(c1)[C@]1(C[C@H]1c1ccc3c(/C=C/c4ccc(CN5C[C@@H](C)O[C@@H](C)C5)cc4)n[nH]c3c1)C(=O)N2 [CFI-400945]
inhibition at 0.5 µM (AURKC): 84% | IC50 (MUSK): 48.7 nM | % Inhibition Duplicate #1 (ROS1): 99% | % Inhibition (various kinases [1]): 11% and 5% | % Inhibition (various kinases [2]): 16% and 12% | % Inhibition Average (various kinases [3]): 7% | % Inhibition Duplicate #1 (various kinases [3]): 9% | % Inhibition Duplicate #2 (various kinases [3]): 4% | % Inhibition Average (various kinases [4]): 14% | % Inhibition Duplicate #1 (various kinases [4]): 13% | % Inhibition Duplicate #2 (various kinases [4]): 14% | % Inhibition (various kinases [5]): 3% and 4% | % Inhibition Average (various kinases [6]): 3% | % Inhibition Duplicate #1 (various kinases [6]): 4% | % Inhibition Duplicate #2 (various kinases [6]): 2% | % Inhibition (various kinases [7]): 38% and 44% | % Inhibition (various kinases [8]): 4% and 7% | % Inhibition (various kinases [9]): 7% | % Inhibition (various kinases [10]): 7% and 6% | % Inhibition (various kinases [11]): 23% | % Inhibition (various kinases [12]): -3% and -2% | % Inhibition Average (various kinases [13]): -2% | % Inhibition Duplicate #1 (various kinases [13]): -8% | % Inhibition Duplicate #2 (various kinases [13]): 4% | % Inhibition (various kinases [14]): 7% and -3% | % Inhibition (various kinases [15]): 3% and 4% | % Inhibition (various kinases [16]): 7% and 2% | % Inhibition (various kinases [17]): 0% | % Inhibition Average (various kinases [18]): 4% | % Inhibition Duplicate #1 (various kinases [18]): 6% | % Inhibition Duplicate #2 (various kinases [18]): 3% | IC50 (BT-12 cells): 3730 nM | FC, delay in reaching confluency (DAOY MB cells): 1.70 | clonogenic recovery (RT and MB cell lines): none of the cell lines recovered their ability to generate colonies | polyploidy (cell cycle analysis) [19]: No effect | growth of intracranial AT/RT tumors (luminescence) ([20]; 7.5 mg/kg/day oral for 21 days, p=0.0146): significantly reduced | survival of treated animals ([20]; 7.5 mg/kg/day oral for 21 days, p=0.0477, log-rank test): extended | nuclear area FC in tumor cells [20, 21]: 21.67 | nuclear diameter FC in tumor cells [20, 21]: 2.69
